Measurements taken from PubChem BioAssay (NCI).
Several values for one entry are separate records, joined by “and”; a condition that tells them apart may be missing. Equal entries are not always repeated.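 Following 48 hours of exposure in 96-well plates, responses at five concentrations were used to interpolate endpoints linearly. The concentration for 50% growth inhibition is given as GI50. Definition used: TGI = concentration required for complete inhibition of growth.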

Legend:
Assay in all cases: NCI tumour cell line growth inhibition, 48 h
SN12C renal = test system: SN12C renal
MALME-3M melanoma = test system: MALME-3M melanoma
HL-60(TB) leukemia = test system: HL-60(TB) leukemia
PC-3 prostate = test system: PC-3 prostate
MOLT-4 leukemia = test system: MOLT-4 leukemia
OVCAR-3 ovarian = test system: OVCAR-3 ovarian
786-0 renal = test system: 786-0 renal
DU-145 prostate = test system: DU-145 prostate
CCRF-CEM leukemia = test system: CCRF-CEM leukemia
ACHN renal = test system: ACHN renal

Row | Structure (SMILES) | GI50 (SN12C renal) | TGI (SN12C renal) | GI50 (MALME-3M melanoma) | TGI (MALME-3M melanoma) | GI50 (HL-60(TB) leukemia) | TGI (HL-60(TB) leukemia) | GI50 (PC-3 prostate) | TGI (PC-3 prostate) | GI50 (MOLT-4 leukemia) | TGI (MOLT-4 leukemia) | GI50 (OVCAR-3 ovarian) | TGI (OVCAR-3 ovarian) | GI50 (786-0 renal) | TGI (786-0 renal) | GI50 (DU-145 prostate) | TGI (DU-145 prostate) | GI50 (CCRF-CEM leukemia) | TGI (CCRF-CEM leukemia) | GI50 (ACHN renal) | TGI (ACHN renal)
1 | COc1ccc(S(=O)(=O)N(C(C)=O)c2ccccc2/C=C/c2cc[n+]([O-])cc2)cc1 | 1.61 µM | > 10 µM | 3.77 µM | > 10 µM | 0.64 µM | > 6.53 µM | 0.688 µM | > 10 µM | 1.25 µM | > 10 µM | 0.371 µM | 1.57 µM | 1.67 µM | > 10 µM | 0.813 µM | > 10 µM | 0.762 µM | > 7.66 µM | 2.36 µM | > 10 µM
2 | O=C([O-])CC(=O)[O-].[NH-][C@@H]1CCCC[C@H]1[NH-].[Pt+4] | 15 µM | > 100 µM | 6.4 µM | > 100 µM | 6.31 µM | > 100 µM | 37 µM | > 100 µM | 1.29 µM | 61.4 µM | 24.9 µM | > 100 µM | 13.2 µM | > 100 µM | 93 µM | > 100 µM | 4.32 µM | > 100 µM | > 35.9 µM | > 100 µM
3 | CC(SCc1ccccc1)C(=O)O (configuration not stated) | – | > 100 µM | – | > 100 µM | – | > 100 µM | – | > 100 µM | – | > 100 µM | – | > 100 µM | – | > 100 µM | – | > 100 µM | – | > 100 µM | – | > 100 µM
4 | CCCCn1c(=O)c(/C=C/C(=O)/C=C/c2cc3ccccc3n(CCCC)c2=O)cc2ccccc21 | 2.21 µM | 5.2 µM | 2.29 µM | 5.33 µM | 1.71 µM | 6.63 µM | 1.79 µM | 3.86 µM | – | – | 1.21 µM | 2.47 µM | 1.35 µM | 3.08 µM | 1.47 µM | 2.78 µM | – | – | 1.7 µM | 3.07 µM
5 | C[N+](C)=c1ccc2nc3c(cc(NCCCNc4cc5oc6cc(=[N+](C)C)ccc-6nc5c5ccccc45)c4ccccc43)oc-2c1 | 2.33 µM | 7.39 µM | 2.05 µM | 4.45 µM | 2.56 µM | 9.25 µM | 1.2 µM | 5.64 µM | 3 µM | 25 µM | 0.341 µM | 2.33 µM | 4.66 µM | 43.4 µM | 1.53 µM | 2.91 µM | 4.39 µM | 21.7 µM | 2.17 µM | 11.3 µM
6 | C[C@@H]1CC[C@@]2(NC1)O[C@H]1C[C@H]3[C@@H]4CC[C@H]5C[C@@H](O)CC[C@]5(C)[C@H]4CC[C@]3(C)[C@H]1[C@@H]2C | – | > 100 µM | – | > 100 µM | – | 53.8 µM | – | > 100 µM | – | > 100 µM | – | > 100 µM | – | > 100 µM | – | > 100 µM | – | > 100 µM | – | 85.5 µM
7 | O=c1[nH]c(=O)n(C2CC(O)C(CO)O2)cc1C(F)(F)F (configuration not stated) | 3.8 µM | > 100 µM | > 49.9 µM | > 100 µM | 0.409 µM | – | > 100 µM | > 100 µM | 1.65 µM | > 100 µM | > 77.4 µM | > 100 µM | 0.464 µM | – | 2.85 µM | > 100 µM | 0.557 µM | > 100 µM | 1.3 µM | > 100 µM
8 | COc1cc2nccc(Oc3ccc(NC(=O)c4cn(C(C)C)c(=O)n(-c5ccc(F)cc5)c4=O)cc3F)c2cc1OC | 2.81 µM | > 100 µM | 2.39 µM | 11.8 µM | > 100 µM | > 100 µM | 6.28 µM | > 100 µM | > 100 µM | > 100 µM | > 41.4 µM | > 100 µM | > 100 µM | > 100 µM | > 100 µM | > 100 µM | > 100 µM | > 100 µM | 2.69 µM | > 26.3 µM
9 | CCC1=C(CC2NCCc3ccccc32)CC2c3cc(OC)c(OC)cc3CCN2C1 (configuration not stated) | 4.92 µM | 35.6 µM and 7.34 µM | 3.02 µM | 9.64 µM and 2.75 µM | 2.89 µM | 10.7 µM and 5.01 µM | 3.48 µM | – | 3.39 µM | 13.8 µM and 2.2 µM | 3.61 µM | 19 µM and 11.3 µM | 4.04 µM | 17.1 µM and 2.9 µM | 3.24 µM | 12.7 µM and 2.59 µM | 3.81 µM | 18.6 µM and 4.53 µM | 3.96 µM | 37.6 µM and 3.9 µM
10 | CCN(Cc1c(F)cccc1Cl)c1ccc(CO)c(Cl)c1 | 11.9 µM | 25 µM | 14.1 µM | 28.6 µM | 13 µM | 37.3 µM | 12 µM | 25.1 µM | 17.1 µM | 39.8 µM | < 0.034 µM | 0.297 µM | 14.9 µM | 30.1 µM | 11.8 µM | 24.9 µM | 16.2 µM | 39 µM | 15.1 µM | 29.4 µM
11 | Cc1ccc(C(=O)NC2CC2)cc1-c1ccc2[nH]ncc2c1 | > 25 µM | > 25 µM | > 25 µM | > 25 µM | > 25 µM | > 25 µM | > 25 µM | > 25 µM | > 25 µM | > 25 µM | > 25 µM | > 25 µM | > 25 µM | > 25 µM | > 25 µM | > 25 µM | > 25 µM | > 25 µM | > 25 µM | > 25 µM
12 | CN(C)CCCNc1nc2ccccc2c2[nH]c3ccccc3c12 | 0.639 µM | 2.26 µM | – | – | 1.05 µM | 2.49 µM | 0.897 µM | 2.97 µM | 0.276 µM | 50 µM | 0.66 µM | 2.23 µM | 0.958 µM | 5.2 µM | 0.72 µM | 4.36 µM | 0.206 µM | 1.38 µM | 0.703 µM | 2.24 µM
13 | CN1CCN(CCCOc2cc(O)c3c(=O)cc(-c4ccccc4)oc3c2)CC1 | 18.9 µM | 41.3 µM | 20.8 µM | 42.6 µM | 19.1 µM | 39.5 µM | 31.4 µM | > 100 µM | 17.3 µM | 38.8 µM | 20.8 µM | 54.9 µM | 20.6 µM | 43.3 µM | 25.3 µM | 73.7 µM | 23.6 µM | 56.7 µM | 16 µM | 29.4 µM
14 | CNC(=O)c1cncc(/C=C/c2ccccc2Cl)c1 | > 25 µM | > 25 µM | > 25 µM | > 25 µM | > 25 µM | > 25 µM | > 25 µM | > 25 µM | > 25 µM | > 25 µM | > 25 µM | > 25 µM | > 25 µM | > 25 µM | > 25 µM | > 25 µM | > 25 µM | > 25 µM | > 25 µM | > 25 µM
15 | CN(N)c1nc(N)c(C#N)c(C#N)c1C#N | – | > 10 µM | – | > 10 µM | – | > 10 µM | – | > 10 µM | – | > 10 µM | – | > 10 µM | – | > 10 µM | – | > 10 µM | – | > 10 µM | – | > 10 µM
16 | COc1cc(C(=O)c2cocc2C(=O)c2ccc3c(c2)OCO3)cc(OC)c1OC | – | 56.1 µM | – | 29.1 µM | – | 2.06 µM | – | > 35.9 µM | – | > 74.7 µM | – | 8.15 µM | – | 39.7 µM | – | 21.2 µM | – | > 51.6 µM | – | > 48.4 µM
17 | CNC(=O)c1ccccc1Nc1nc(Nc2ccc3c(c2OC)CCC[C@H](N2CCN(CCO)CC2)C3)ncc1Cl | 2.57 µM and 2.59 µM | 13.3 µM and > 10 µM | 0.875 µM and 1.63 µM | 3.09 µM and > 10 µM | 0.403 µM and 0.305 µM | 2.04 µM and 2.38 µM | 3.01 µM and 2.06 µM | 15.5 µM and > 10 µM | 2.45 µM and 2.82 µM | 6.75 µM and > 10 µM | 6.74 µM and 3.18 µM | 20.3 µM and > 10 µM | 1.48 µM and 1.44 µM | 4.24 µM and 5.06 µM | 1.17 µM and 0.888 µM | 14.8 µM and > 10 µM | 2.95 µM and 2.97 µM | 11 µM and > 10 µM | 1.16 µM and 1.43 µM | 11.3 µM and > 10 µM
18 | COC(C)C(O)(C(=O)OCC1=CCN2CCC(O)C12)C(C)(C)O (configuration not stated) | – | > 100 µM | – | > 100 µM | – | > 100 µM | – | > 100 µM | – | > 100 µM | – | > 100 µM | – | > 100 µM | – | > 100 µM | – | > 100 µM | – | > 100 µM
19 | CC1(C)CCC[C@]2(C)c3ccccc3C(=O)CC12 (some centres not stated) | 44.9 µM | > 100 µM | 29 µM | > 100 µM | 40.5 µM | > 100 µM | 42 µM | > 100 µM | 75.8 µM | > 100 µM | 41.2 µM | > 100 µM | 64.9 µM | > 100 µM | 65.7 µM | > 100 µM | 31.7 µM | > 100 µM | 67.4 µM | > 100 µM
20 | CCOC(=O)/C=C/c1cccc(F)c1 | – | > 100 µM | – | > 100 µM | – | > 100 µM | – | > 100 µM | – | > 100 µM | – | – | – | > 100 µM | – | > 100 µM | – | > 100 µM | – | > 100 µM
21 | N#Cc1cccc(C2C3=C(COC3=O)N(CCO)c3cc4c(cc32)OCO4)c1 (configuration not stated) | 3.81 µM | > 50 µM | – | – | 1.32 µM | 4.36 µM | 1.62 µM | > 50 µM | 3.64 µM | > 50 µM | 1.35 µM | > 50 µM | 2.04 µM | > 50 µM | 3 µM | > 50 µM | 1.53 µM | > 50 µM | 3.53 µM | > 50 µM
22 | COCCNc1cncc(C(N)=O)c1 | – | > 100 µM | – | – | – | > 100 µM | – | > 100 µM | – | > 100 µM | – | > 100 µM | – | > 100 µM | – | > 100 µM | – | > 100 µM | – | > 100 µM
